Test results from the supplement of paper PMC11208160.

assay: recombinant barcode read abundance after kanamycin selection (control-corrected) (log10(CPM+1)); higher = more efficient recombination; sequences stand for … in AGTGCAGAGAAAATCGGCCAGTTTTCTCTGCCTGCAGTCCGCATGCCGT…AGATTTATGCAGCGGACTGCCTTTCTCCCAAAGTGATAAACCGGACAGTATCATGGACCGGTTTTCCCGGTAATCCGTATTTGCAAGGTTGGTTTCACT; site = the 11-nt target
Procedure, shortened: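 In a pooled screen in E. coli, targets were paired with target-binding loops of the IS621 bridge RNA. Each oligo carried a promoter, a target, a barcode and the first 104 bridge RNA bases driven by J23119, and was Gibson-cloned into a vector holding the remaining 73 bp and a T7-inducible recombinase before co-electroporation with a donor plasmid. Duplicate platings went onto chloramphenicol/ampicillin LB agar as the control or onto chloramphenicol/ampicillin/kanamycin with 0.1 mM IPTG. Recombination efficiency is the averaged, control-corrected count per million of barcodes at recombinant junctions, given as log10(CPM+1).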
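Further: IS621 recombinase and bridge RNA in Escherichia coli cells.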

“GCCGTAGCTTGGGTTCTAACCTGTTGCCT (site GACGTAGCTAG)” and “GCCGTAGCTTGGGTTCTAACCTGTTGCCT (site GCCGTAGCTAG)” are within 0.2 log units of each other in “recombinant barcode read abundance (log10)” value: 0.0542 for the first, 0.0284 for the second.

“GCCGTAGCTTGGGTTCTAACCTGTTGCCT (site GGCGTAGCTAG)” and “GCCGTAGCTTGGGTTCTAACCTGTTGCCT (site GTCGTAGCTAG)” are within 0.2 log units of each other in “recombinant barcode read abundance (log10)” value: 0.163 for the first, 0.00812 for the second.

First: GCCTGCCCTTGGGTTCTAACCTGTTGCCT (site GACTGCCCTAG)
Second: GCCTGCCCTTGGGTTCTAACCTGTTGCCT (site GCCTGCCCTAG)
The “recombinant barcode read abundance (log10)” value of the first is lower: 0.0828 for the first, 0.892 for the second.

“GCCTGCCCTTGGGTTCTAACCTGTTGCCT (site GGCTGCCCTAG)” and “GCCTGCCCTTGGGTTCTAACCTGTTGCCT (site GTCTGCCCTAG)” are within 0.2 log units of each other in “recombinant barcode read abundance (log10)” value: 0.0211 for the first, 0.0318 for the second.

Going from “GCGAACCCTTGGGTTCTAACCTGTTGCGG (site GCGAACCCTCC)” to “GCGAACCCTTGGGTTCTAACCTGTTGCGG (site GCTAACCCTAC)”, the “recombinant barcode read abundance (log10)” value falls from 0.967 to 0.0412.

Going from “GCGACATCTTGGGTTCTAACCTGTTGCCT (site GCGACATCTAG)” to “GCGACATCTTGGGTTCTAACCTGTTGCCT (site TAAGATGCTCC)”, the “recombinant barcode read abundance (log10)” value falls from 0.428 to 0.162.

Going from “GCGCGCCCTTGGGTTCTAACCTGTTGCTG (site GCGCGCCCTCA)” to “GCGCGCCCTTGGGTTCTAACCTGTTGCTG (site GCGCGCCCTCC)”, the “recombinant barcode read abundance (log10)” value falls from 0.331 to 0.0616.

Compared with “GCGCGGCCTTGGGTTCTAACCTGTTGCCT (site ACGCGGCCTAG)”, “GCGCGGCCTTGGGTTCTAACCTGTTGCCT (site CCGCGGCCTAG)” is lower in “recombinant barcode read abundance (log10)” value: 0.56 for the first, 0.0374 for the second.

Going from “GCGCGGCCTTGGGTTCTAACCTGTTGCCT (site GCGCGGCCTAG)” to “GCGCGGCCTTGGGTTCTAACCTGTTGCCT (site TCGCGGCCTAG)”, the “recombinant barcode read abundance (log10)” value falls from 0.253 to 0.0177.

First: GCGGATCCTTGGGTTCTAACCTGTTGCTA (site AGATTAGCTCG)
Second: GCGGATCCTTGGGTTCTAACCTGTTGCTA (site GCGGATCCTTA)
The “recombinant barcode read abundance (log10)” value of the first is lower: 0.159 for the first, 1.9 for the second.

“GCGGCTCCTTGGGTTCTAACCTGTTGCAT (site GCGACTCCTAT)” and “GCGGCTCCTTGGGTTCTAACCTGTTGCAT (site GCGCCTCCTAT)” are within 0.2 log units of each other in “recombinant barcode read abundance (log10)” value: 0.0805 for the first, 0.0751 for the second.

First: GCGGCTCCTTGGGTTCTAACCTGTTGCAT (site GCGGCTCCTAT)
Second: GCGGCTCCTTGGGTTCTAACCTGTTGCAT (site GCGTCTCCTAT)
The “recombinant barcode read abundance (log10)” value of the first is higher: 1.55 for the first, 0.331 for the second.

First: GCGGGTACTTGGGTTCTAACCTGTTGCCT (site GCGGGTACTAG)
Second: GCGGGTACTTGGGTTCTAACCTGTTGCCT (site GCGTGTACTAG)
The “recombinant barcode read abundance (log10)” value of the first is higher: 1.47 for the first, 0.0951 for the second.

Going from “GCGTCCACTTGGGTTCTAACCTGTTGCTA (site GCGTCCACTTA)” to “GCGTCCACTTGGGTTCTAACCTGTTGCTA (site GCGTGCCCTTA)”, the “recombinant barcode read abundance (log10)” value rises from 0.0606 to 0.299.

First: GCGTCCTCTTGGGTTCTAACCTGTTGCTT (site GCGTCCTCTAA)
Second: GCGTCCTCTTGGGTTCTAACCTGTTGCTT (site TACCGTCCTCC)
The “recombinant barcode read abundance (log10)” value of the first is higher: 0.636 for the first, 0.0776 for the second.

“GCGTCTACTTGGGTTCTAACCTGTTGCCT (site GCGTCTACTAG)” and “GCGTCTACTTGGGTTCTAACCTGTTGCCT (site GCGTGGACTAG)” are within 0.2 log units of each other in “recombinant barcode read abundance (log10)” value: 0.169 for the first, 0.051 for the second.

Compared with “GCGTGCCCTTGGGTTCTAACCTGTTGCTA (site GCGTCCACTTA)”, “GCGTGCCCTTGGGTTCTAACCTGTTGCTA (site GCGTGCCCTTA)” is higher in “recombinant barcode read abundance (log10)” value: 0.00781 for the first, 0.356 for the second.

Compared with “GCGTGGACTTGGGTTCTAACCTGTTGCCT (site GCGTCTACTAG)”, “GCGTGGACTTGGGTTCTAACCTGTTGCCT (site GCGTGGACTAG)” is higher in “recombinant barcode read abundance (log10)” value: 0.235 for the first, 1.61 for the second.

First: GCGTTACCTTGGGTTCTAACCTGTTGCCT (site GCGTTACCTAG)
Second: GCGTTACCTTGGGTTCTAACCTGTTGCCT (site GGGATACCTAG)
The “recombinant barcode read abundance (log10)” value of the first is higher: 0.97 for the first, 0.0535 for the second.

Compared with “GCTAAGACTTGGGTTCTAACCTGTTGCTG (site GCTAAGACTCA)”, “GCTAAGACTTGGGTTCTAACCTGTTGCTG (site GGTAAGACTCC)” is lower in “recombinant barcode read abundance (log10)” value: 1.93 for the first, 0.0258 for the second.

Compared with “GCTACCTCTTGGGTTCTAACCTGTTGCCT (site GCTACCTCTAG)”, “GCTACCTCTTGGGTTCTAACCTGTTGCCT (site GTGACCTCTAG)” is lower in “recombinant barcode read abundance (log10)” value: 1.6 for the first, 0.254 for the second.

Compared with “GCTAGCCCTTGGGTTCTAACCTGTTGCGG (site GCGAGCCCTAC)”, “GCTAGCCCTTGGGTTCTAACCTGTTGCGG (site GCTAGCCCTCC)” is higher in “recombinant barcode read abundance (log10)” value: 0.0935 for the first, 1.83 for the second.

Going from “GCTAGGGCTTGGGTTCTAACCTGTTGCAG (site GCAAGGGCTCG)” to “GCTAGGGCTTGGGTTCTAACCTGTTGCAG (site GCTAGGGCTCT)”, the “recombinant barcode read abundance (log10)” value rises from 0.491 to 2.94.

Going from “GCTCAGACTTGGGTTCTAACCTGTTGCCT (site GCTCAGACTAG)” to “GCTCAGACTTGGGTTCTAACCTGTTGCCT (site GCTCAGCCTAG)”, the “recombinant barcode read abundance (log10)” value falls from 1.78 to 0.0925.

“GCTCAGACTTGGGTTCTAACCTGTTGCCT (site GCTCAGGCTAG)” and “GCTCAGACTTGGGTTCTAACCTGTTGCCT (site GCTCAGTCTAG)” are within 0.2 log units of each other in “recombinant barcode read abundance (log10)” value: 0.132 for the first, 0.0442 for the second.

“GCTCCTACTTGGGTTCTAACCTGTTGCCT (site GATCCTACTAG)” and “GCTCCTACTTGGGTTCTAACCTGTTGCCT (site GCTCCTACTAG)” are within 0.2 log units of each other in “recombinant barcode read abundance (log10)” value: 0.118 for the first, 0.0272 for the second.

First: GCTCCTACTTGGGTTCTAACCTGTTGCCT (site GGTCCTACTAG)
Second: GCTCCTACTTGGGTTCTAACCTGTTGCCT (site GTTCCTACTAG)
The “recombinant barcode read abundance (log10)” value of the first is higher: 0.48 for the first, 0.108 for the second.

Going from “GCTCGGGCTTGGGTTCTAACCTGTTGCGG (site ATGTCCTCTTG)” to “GCTCGGGCTTGGGTTCTAACCTGTTGCGG (site GCTCGGGCTCC)”, the “recombinant barcode read abundance (log10)” value rises from 0.0124 to 2.6.

“GCTCTAGCTTGGGTTCTAACCTGTTGCCT (site GCACAAGCTAG)” and “GCTCTAGCTTGGGTTCTAACCTGTTGCCT (site GCTCTAGCTAG)” are within 0.2 log units of each other in “recombinant barcode read abundance (log10)” value: 0.0696 for the first, 0.0295 for the second.

First: GCTGAGACTTGGGTTCTAACCTGTTGCGT (site CTCTGTCCTCA)
Second: GCTGAGACTTGGGTTCTAACCTGTTGCGT (site GCTGAGACTAC)
The “recombinant barcode read abundance (log10)” value of the first is lower: 0.237 for the first, 2.04 for the second.

First: GCTGAGGCTTGGGTTCTAACCTGTTGCTG (site GCTGAGGCTCA)
Second: GCTGAGGCTTGGGTTCTAACCTGTTGCTG (site TCTGAGTCTCA)
The “recombinant barcode read abundance (log10)” value of the first is higher: 1.05 for the first, 0.256 for the second.

Compared with “GCTGGGTCTTGGGTTCTAACCTGTTGCCT (site GATGGGTCTAG)”, “GCTGGGTCTTGGGTTCTAACCTGTTGCCT (site GCTGGGTCTAG)” is higher in “recombinant barcode read abundance (log10)” value: 0.0435 for the first, 0.814 for the second.

First: GCTTACCCTTGGGTTCTAACCTGTTGCTA (site GCTTACCCTTA)
Second: GCTTACCCTTGGGTTCTAACCTGTTGCTA (site TAGCTAGCTAC)
The “recombinant barcode read abundance (log10)” value of the first is higher: 0.36 for the first, 0.0382 for the second.
